Measured values taken from article PMC9648375, “Identification of the first-in-class dual inhibitors of human DNA topoisomerase IIα and indoleamine-2,3-dioxygenase 1 (IDO 1) with strong anticancer properties” (Journal of Enzyme Inhibition and Medicinal Chemistry, 2022).
In brackets after ≈: the same amount, converted by molar mass.

Key:
[1] = test system: A549 (human lung carcinoma); test: BrdU assay; assay type: cell-based; details: for IC50: Homo sapiens, A549, BrdU, 24 h, read-out: IC50 ± SD, antiproliferative activity
Description: (§1) Since the inhibition of human DNA topoisomerase II should result in decreased proliferation of cancer cells, compounds 1-3 were tested using BrdU assay against a panel of cancer cell lines, including MCF-7 (estrogen-dependent human breast cancer cells), MDA-MB-231 (estrogen-independent human breast cancer cells), SCC-25 (squamous cell carcinoma of the tongue), FaDu (squamous cell carcinoma of the pharynx), A549 (human lung carcinoma), AGS (human gastric adenocarcinoma), LS-180, HT-29 (colon cancer cell lines), T98G (glioblastoma cells), and A375 (melanoma cells). Human normal skin fibroblasts (CRL-2072) were also used as a reference cell line. The BrdU assay allows quantification of cell proliferation since it measures incorporation of thymidine analogue (BrdU) during DNA replication. […] However, although the antiproliferative effect caused by 3 was mostly weaker (except for A549 and A375) than observed for 1, but the former compound was also characterised by lower toxicity against human normal cells. It results in selectivity index approaching 125 and 57, when it comes to lung cancer (A549) and melanoma cells (A375), respectively.
(§2) Cytotoxicity of the synthesised compounds were examined against a panel of the cancer cell lines, MCF-7 (estrogen-dependent human breast cancer cells), MDA-MB-231 (oestrogen-independent human breast cancer cells), SCC- 25 (squamous cell carcinoma of the tongue), FaDu (squamous cell carcinoma of the pharynx), A- 549 (human lung carcinoma), AGS (human gastric adenocarcinoma), LS-180, HT-29 (colon cancer cell lines), T98G (glioblastoma cells), A375 (melanoma cells). Human embryonic kidney (HEK-293) cells and human normal skin fibroblasts (CRL-2072) were used as reference cell lines. The investigated cell lines were obtained from American Type Culture Collection (ATCC; Manassas, VA, USA). A375, MCF-7, MDA-MB-231, T98G cells were cultured in Dulbecco’s Modified Eagle’s Medium (DMEM) (Sigma Aldrich, St. Louis, MO, USA) supplemented with 10% heat inactivated foetal bovine serum (FBS), penicillin (100 U/mL), and streptomycin (100 μg/mL). SCC-25 cells were cultured in 1:1 mixture of Dulbecco’s modified Eagle’s medium and Ham’s F12 Medium (Sigma Aldrich, St. Louis, MO, USA) supplemented with 400 ng/ml hydrocortisone, 10% FBS, penicillin (100 U/mL), and streptomycin (100 μg/mL). A549 and AGS cells were maintained in F-12K Medium (Sigma Aldrich, St. Louis, MO, USA). LS-180 and FaDu cells were cultured in Eagle’s Minimum Essential Medium. HT-29 cells were maintained in McCoy’s 5 A Medium (Sigma Aldrich, St. Louis, MO, USA) supplemented with 10%FBS, penicillin (100 U/mL), and streptomycin (100 μg/mL). All the cells were maintained at 37 °C in a humidified atmosphere of 5% CO2.
(§3) The BrdU assay was performed to determine the effect of synthesised compounds on the proliferation of cancer cells. BrdU assay indicates the rate of incorporation of 5′-bromo-2′-deoxy-uridine (BrdU) during DNA biosynthesis. In brief, cells were plated in 96-well plates (NUNC, Roskilde, Denmark) at the density of 3 × 10^4 cells/mL. […] Cell proliferation was examined after 24 h and 48 h of incubation according to the manufacturer’s protocol (Cell Proliferation ELISA BrdU, Roche Diagnostics GmbH, Penzberg,)Germany).

[2] = test system: MCF-7 (estrogen-dependent human breast cancer cells); test: BrdU assay; assay type: cell-based; details: MCF7, MCF-7, BrdU, 24 h, read-out: IC50 ± SD, antiproliferative activity
Description: as §1, §2, §3

[3] = test system: T98G (glioblastoma cells); test: BrdU assay; assay type: cell-based; details: Homo sapiens, 24 h, read-out: IC50 ± SD, antiproliferative activity
Description: as §1, §2, §3

[4] = test system: LS180 (colon cancer cell line); test: BrdU assay; assay type: cell-based; details: Homo sapiens, 24 h, read-out: IC50 ± SD, antiproliferative activity
Description: as §1, §2, §3

[5] = test system: FaDu (squamous cell carcinoma of the pharynx); test: BrdU assay; assay type: cell-based; details: Homo sapiens, 24 h, read-out: IC50 ± SD, antiproliferative activity
Description: as §1, §2, §3

[6] = test system: MDA-MB-231 (estrogen-independent human breast cancer cells); test: BrdU assay; assay type: cell-based; details: MDA-MB-231, BrdU, 24 h, read-out: IC50 ± SD, antiproliferative activity
Description: as §1, §2, §3

[7] = test system: SCC-25 (squamous cell carcinoma of the tongue); test: BrdU assay; assay type: cell-based; details: Homo sapiens; SCC-25, BrdU, 24 h; read-out: IC50 ± SD, antiproliferative activity
Description: as §1, §2, §3

[8] = test system: Human normal skin fibroblasts (CRL-2072); test: BrdU assay; assay type: cell-based; details: Skin fibroblast, 24 h, read-out: IC50 ± SD, antiproliferative activity
Description: as §1, §2, §3

[9] = test system: HT-29 (colon cancer cell line); test: BrdU assay; assay type: cell-based; details: Homo sapiens; HT-29, BrdU, 24 h; read-out: IC50 ± SD, antiproliferative activity
Description: as §1, §2, §3

[10] = test system: AGS (human gastric adenocarcinoma); test: BrdU assay; assay type: cell-based; details: 24 h, read-out: IC50 ± SD, antiproliferative activity
Description: as §1, §2, §3

A375 (melanoma cells) = test: BrdU assay; assay type: cell-based, human; details: for IC50: Homo sapiens, A-375, A375, BrdU, 24 h, read-out: IC50 ± SD, antiproliferative activity
Description: as §1, §2, §3

Row | Structure (SMILES) | IC50 [1] | IC50 [2] | IC50 [3] | IC50 [4] | IC50 [5] | IC50 [6] | IC50 [7] | IC50 [8] | IC50 [9] | IC50 [10] | melting point | IC50 (A375 (melanoma cells)) | selectivity index, A549 vs. human normal skin fibroblasts ([1]; BrdU assay, lung cancer (A549)) | selectivity index, A375 vs. human normal skin fibroblasts (A375 (melanoma cells); BrdU assay, melanoma cells (A375))
1 | CC(C)c1cccc(C(C)C)c1NC(=S)NNC(=O)Cc1cccc2ccccc12 [Compound 1, 4-(2,6-Diisopropylphenyl)-1-[(naphth-1-yl)acetyl]thiosemicarbazide] | 0.23 ± 0.01 µg/mL (≈ 0.548 µM) | 1.19 ± 0.04 µg/mL (≈ 2.84 µM) | 0.72 ± 0.02 µg/mL (≈ 1.72 µM) | 4.68 ± 0.17 µg/mL (≈ 11.2 µM) | 1.04 ± 0.04 µg/mL (≈ 2.48 µM) | 26.3 ± 0.99 µg/mL (≈ 62.7 µM) | 1.1 ± 0.02 µg/mL (≈ 2.62 µM) | 22.4 ± 0.94 µg/mL (≈ 53.3 µM) | 0.44 ± 0.03 µg/mL (≈ 1.05 µM) | 0.51 ± 0.02 µg/mL (≈ 1.22 µM) | 140 to 142 °C | 0.96 ± 0.03 µg/mL (≈ 2.29 µM) | – | –
2 | O=C(Cc1cccc2ccccc12)NNC(=S)Nc1ccc(N=Nc2ccccc2)cc1 [Compound 2, 4-(4-Phenylazophenyl)-1-[(naphth-1-yl)acetyl]thiosemicarbazide] | 0.83 ± 0.03 µg/mL (≈ 1.89 µM) | 33.2 ± 1.05 µg/mL (≈ 75.4 µM) | 6.19 ± 1.83 µg/mL (≈ 14.1 µM) | 10.4 ± 0.77 µg/mL (≈ 23.6 µM) | 7.11 ± 0.34 µg/mL (≈ 16.2 µM) | > 100 µg/mL | 1.06 ± 0.04 µg/mL (≈ 2.41 µM) | 24.2 ± 1.4 µg/mL (≈ 55 µM) | 9.47 ± 0.51 µg/mL (≈ 21.5 µM) | 62.3 ± 3.04 µg/mL (≈ 142 µM) | 178 to 180 °C | 0.85 ± 0.04 µg/mL (≈ 1.93 µM) | – | –
3 | O=C(NNC(=S)Nc1ccc(N=Nc2ccccc2)cc1)c1ccccc1[N+](=O)[O-] [Compound 3, 4-(4-Phenylazophenyl)-1-(2-nitrobenzoyl)thiosemicarbazide] | 0.25 ± 0.01 µg/mL (≈ 0.595 µM) | 32.5 ± 1.98 µg/mL (≈ 77.4 µM) | 6.28 ± 0.37 µg/mL (≈ 14.9 µM) | 10.6 ± 0.24 µg/mL (≈ 25.1 µM) | 9.04 ± 0.39 µg/mL (≈ 21.5 µM) | > 100 µg/mL | 4.89 ± 0.22 µg/mL (≈ 11.6 µM) | 32.1 ± 1.75 µg/mL (≈ 76.4 µM) | 13.1 ± 0.81 µg/mL (≈ 31.3 µM) | 43.9 ± 1.94 µg/mL (≈ 104 µM) | 168 to 170 °C | 0.56 ± 0.03 µg/mL (≈ 1.33 µM) | ~125 | ~57
4 | COc1cc([C@@H]2c3cc4c(cc3[C@@H](O[C@@H]3O[C@@H]5CO[C@@H](C)O[C@H]5[C@H](O)[C@H]3O)[C@H]3COC(=O)[C@H]23)OCO4)cc(OC)c1O [Etoposide, etoposide, reference compound] | 2.6 ± 0.11 µg/mL (≈ 4.42 µM) | 54.9 ± 1.82 µg/mL (≈ 93.3 µM) | 29.5 ± 0.93 µg/mL (≈ 50.1 µM) | > 100 µg/mL | 12.8 ± 0.27 µg/mL (≈ 21.8 µM) | > 100 µg/mL | 21.2 ± 0.74 µg/mL (≈ 36 µM) | 55.7 ± 3.01 µg/mL (≈ 94.6 µM) | 19.9 ± 0.25 µg/mL (≈ 33.9 µM) | 46 ± 2.61 µg/mL (≈ 78.1 µM) | – | 9.18 ± 0.15 µg/mL (≈ 15.6 µM) | – | –
